Consider 21 molecules from patent US20090311217A1, “3-SUBSTITUTED-1H-INDOLE COMPOUNDS, THEIR USE AS MTOR KINASE AND PI3 KINASE INHIBITORS, AND THEIR SYNTHESES” (priority 2008, published 2009).

Common to all, as to type: biochemical
In assay [1] the target is PI3K-gamma (Homo sapiens, UniProt P48736). Kind of assay: PI3K-gamma fluorescence polarization assay. The following applies: PI3Kγ Avg. IC50. In outline:
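FP displacement read-out: 100 nM GST-GRP1 PH domain plus 5 nM BODIPY-TMR-IP4 added after EDTA stop. Preceding kinase step: 5 ng enzyme, diC8-PI(4,5)P2 2.5 μM, ATP 25 μM, MgCl2 2.5 mM, HEPES 5 mM pH 7, one hour, 25° C.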

The target of assay [2] is T1, human TOR (Homo sapiens, UniProt P42345).
T1 construct: FLAG
Kind of assay: mTOR enzyme assay (DELFIA, His6-S6K substrate). The following applies: read-out: mTOR Kinase Avg. IC50.

For assay [3], the target named is PI3K-alpha (Homo sapiens, UniProt P42336). Kind of assay: PI3K-alpha fluorescence polarization assay. The following applies: read-out: PI3Kα Avg. IC50. A general note: Polarisation of emitted light reports the rotation of a fluorescent probe.
Sequence of PI3K-alpha (P42336 whole entry, species assumed): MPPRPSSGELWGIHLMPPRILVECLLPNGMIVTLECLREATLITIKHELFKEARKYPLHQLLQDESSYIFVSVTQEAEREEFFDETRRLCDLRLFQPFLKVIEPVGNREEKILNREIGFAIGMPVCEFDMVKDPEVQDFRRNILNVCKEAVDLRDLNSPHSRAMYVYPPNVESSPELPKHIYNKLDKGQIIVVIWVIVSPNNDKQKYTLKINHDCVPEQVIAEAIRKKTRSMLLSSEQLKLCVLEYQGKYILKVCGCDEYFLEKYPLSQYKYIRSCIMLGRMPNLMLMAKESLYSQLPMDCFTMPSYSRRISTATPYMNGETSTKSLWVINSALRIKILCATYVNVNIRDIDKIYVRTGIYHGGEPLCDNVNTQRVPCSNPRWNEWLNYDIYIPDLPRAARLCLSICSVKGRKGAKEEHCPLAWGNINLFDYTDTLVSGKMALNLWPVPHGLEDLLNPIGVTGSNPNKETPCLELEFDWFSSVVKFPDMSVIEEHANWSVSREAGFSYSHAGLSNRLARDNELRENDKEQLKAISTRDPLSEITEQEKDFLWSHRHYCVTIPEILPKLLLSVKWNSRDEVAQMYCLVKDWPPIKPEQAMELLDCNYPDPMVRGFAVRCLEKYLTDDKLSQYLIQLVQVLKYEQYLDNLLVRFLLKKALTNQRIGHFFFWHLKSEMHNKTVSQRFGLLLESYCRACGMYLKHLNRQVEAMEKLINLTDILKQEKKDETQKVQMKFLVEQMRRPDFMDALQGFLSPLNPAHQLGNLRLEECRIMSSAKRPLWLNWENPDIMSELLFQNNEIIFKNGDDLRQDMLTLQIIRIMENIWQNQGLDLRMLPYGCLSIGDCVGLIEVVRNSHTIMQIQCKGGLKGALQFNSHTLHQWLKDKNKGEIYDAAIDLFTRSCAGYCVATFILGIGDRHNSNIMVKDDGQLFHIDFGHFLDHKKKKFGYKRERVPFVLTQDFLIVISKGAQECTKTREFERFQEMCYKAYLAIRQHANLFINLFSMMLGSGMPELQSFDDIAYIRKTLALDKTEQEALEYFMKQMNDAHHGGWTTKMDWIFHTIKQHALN
Sequence of PI3K-alpha (P27986 whole entry partner, species assumed): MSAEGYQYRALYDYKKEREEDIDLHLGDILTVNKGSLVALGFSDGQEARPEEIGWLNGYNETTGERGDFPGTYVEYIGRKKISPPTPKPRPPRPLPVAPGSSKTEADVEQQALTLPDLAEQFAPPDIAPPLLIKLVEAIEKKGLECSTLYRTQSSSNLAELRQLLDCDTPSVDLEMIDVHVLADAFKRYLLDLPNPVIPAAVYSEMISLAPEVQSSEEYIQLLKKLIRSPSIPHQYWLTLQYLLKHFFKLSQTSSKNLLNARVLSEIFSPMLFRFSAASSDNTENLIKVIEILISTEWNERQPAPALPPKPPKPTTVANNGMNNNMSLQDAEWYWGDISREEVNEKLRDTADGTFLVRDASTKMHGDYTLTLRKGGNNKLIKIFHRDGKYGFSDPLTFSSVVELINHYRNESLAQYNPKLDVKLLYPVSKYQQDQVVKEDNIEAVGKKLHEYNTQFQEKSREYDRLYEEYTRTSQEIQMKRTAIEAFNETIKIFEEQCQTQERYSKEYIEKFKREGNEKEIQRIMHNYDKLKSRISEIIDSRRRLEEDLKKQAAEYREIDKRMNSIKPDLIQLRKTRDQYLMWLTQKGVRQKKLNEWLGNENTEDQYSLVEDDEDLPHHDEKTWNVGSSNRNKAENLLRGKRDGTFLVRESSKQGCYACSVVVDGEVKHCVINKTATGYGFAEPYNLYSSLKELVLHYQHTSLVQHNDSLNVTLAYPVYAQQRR

Sequence of PI3K-gamma (P48736 whole entry, species assumed, the tested form may be a part): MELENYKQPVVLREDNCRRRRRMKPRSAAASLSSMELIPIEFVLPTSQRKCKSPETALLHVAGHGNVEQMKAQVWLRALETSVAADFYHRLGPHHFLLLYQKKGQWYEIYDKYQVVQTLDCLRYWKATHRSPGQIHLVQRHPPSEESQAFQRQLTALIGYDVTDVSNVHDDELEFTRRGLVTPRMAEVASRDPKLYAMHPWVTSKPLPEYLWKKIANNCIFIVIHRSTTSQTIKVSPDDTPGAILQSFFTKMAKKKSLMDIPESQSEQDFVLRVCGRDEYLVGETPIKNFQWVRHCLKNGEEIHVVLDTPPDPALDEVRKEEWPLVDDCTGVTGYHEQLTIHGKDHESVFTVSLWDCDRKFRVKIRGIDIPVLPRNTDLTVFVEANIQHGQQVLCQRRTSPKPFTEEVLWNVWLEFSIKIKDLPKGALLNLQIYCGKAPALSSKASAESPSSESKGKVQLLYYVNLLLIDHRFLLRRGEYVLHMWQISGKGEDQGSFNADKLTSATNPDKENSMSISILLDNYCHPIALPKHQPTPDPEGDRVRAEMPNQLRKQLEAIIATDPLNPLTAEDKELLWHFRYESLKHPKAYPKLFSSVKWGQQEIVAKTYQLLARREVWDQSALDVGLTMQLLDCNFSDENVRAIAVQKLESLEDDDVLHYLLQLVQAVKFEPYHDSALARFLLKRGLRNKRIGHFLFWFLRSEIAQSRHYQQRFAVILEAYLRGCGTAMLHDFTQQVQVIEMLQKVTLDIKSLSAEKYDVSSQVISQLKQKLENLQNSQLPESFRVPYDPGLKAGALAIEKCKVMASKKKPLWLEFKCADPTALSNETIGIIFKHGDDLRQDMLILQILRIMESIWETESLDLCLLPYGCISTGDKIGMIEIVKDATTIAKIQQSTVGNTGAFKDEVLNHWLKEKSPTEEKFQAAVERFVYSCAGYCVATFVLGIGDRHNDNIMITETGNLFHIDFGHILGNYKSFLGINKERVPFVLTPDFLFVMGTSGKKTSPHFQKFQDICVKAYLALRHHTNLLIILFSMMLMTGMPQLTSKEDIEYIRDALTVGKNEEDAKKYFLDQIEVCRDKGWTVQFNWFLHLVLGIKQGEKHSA

A word on the IC50: it is the concentration that gives 50% inhibition. On to `COc1ccc(-c2cccc3[nH]cc(/C=C4\Oc5cc(O)cc(O)c5C4=O)c23)cc1` [Example 371, (2Z)-4,6-dihydroxy-2-{[4-(4-methoxyphenyl)-1H-indol-3-yl]methylene}benzofuran-3(2H)-one], for which the results for the IC50 in assay [1], in assay [2] and in assay [3] were 0.763 µM, 0.73 µM and 1.01 µM, respectively.
For the molecule `COc1ccc2c(c1)c(/C=C1\Oc3cc(O)c(C)cc3C1=O)c(C)n2CCN1CCN(C)CC1` [Example 458, (2Z)-6-Hydroxy-2-({5-methoxy-2-methyl-1-[2-(4-methylpiperazin-1-yl)ethyl]-1H-indol-3-yl}methylene)-5-methyl-1-benzofuran-3(2H)-one], the 50% inhibitory concentration (IC50) was 4.35 µM in assay [1], above 20 µM in assay [2] and 0.135 µM in assay [3].
The corresponding values for `CNC(=O)Nc1ccc2c(c1)C(=O)/C(=C/c1c(-c3nc(C4CC4)no3)n(CCN3CCN(C)CC3)c3ccc(OC)cc13)O2` [Compound 626, 1-[(2Z)-2-({2-(3-cyclopropyl-1,2,4-oxadiazol-5-yl)-5-methoxy-1-[2-(4-methylpiperazin-1-yl)ethyl]-1H-indol-3-yl}methylidene)-3-oxo-2,3-dihydro-1-benzofuran-5-yl]-3-methylurea] are 0.47 µM, 0.066 µM and 0.003 µM.
As for `COc1ccc2c(c1)c(/C=C1\Oc3cc(O)ccc3C1=O)c(C)n2CCN1CCC(C)CC1` [Example 455, (2Z)-6-Hydroxy-2-({5-methoxy-2-methyl-1-[2-(4-methylpiperidin-1-yl)ethyl]-1H-indol-3-yl}methylene)-1-benzofuran-3(2H)-one], the results for the concentration for half-maximal inhibition (IC50) in assay [1], in assay [2] and in assay [3] were 0.612 µM, 1.4 µM and 0.039 µM, respectively.
The corresponding values for `CCn1c(C)c(/C=C2\Oc3ccc(NC(=O)Nc4ccc(CCCN(C)C)cc4)cc3C2=O)c2cc(OC)ccc21` [Compound 671, 1-{4-[3-(dimethylamino)propyl]phenyl}-3-{(2Z)-2-[(1-ethyl-5-methoxy-2-methyl-1H-indol-3-yl)methylidene]-3-oxo-2,3-dihydro-1-benzofuran-5-yl}urea] are 0.025 µM, 0.22 µM and 0.004 µM.
The corresponding values for `Cn1cc(/C=C2\Oc3cc(O)cc(O)c3C2=O)c2c(-c3cccc(F)c3)cccc21` [Example 365, (2Z)-2-{[4-(3-Fluorophenyl)-1-methyl-1H-indol-3-yl]methylene}-4,6-dihydroxy-1-benzofuran-3(2H)-one] are 1.96 µM, 0.104 µM and 0.437 µM.
In the case of `COc1ccc2c(c1)c(/C=C1\Oc3cc(O)cc(O)c3C1=O)c(C1CCC1)n2CCN1CCN(C)CC1` [Example 446, (2Z)-2-({2-Cyclobutyl-5-methoxy-1-[2-(4-methylpiperazin-1-yl)ethyl]-1H-indol-3-yl}methylene)-4,6-dihydroxy-1-benzofuran-3(2H)-one], the half-inhibitory concentration (IC50) in assay [1] worked out at 0.081 µM; in assay [2] it was 0.00375 µM; in assay [3] it was 0.0035 µM.
For `N#Cc1ccc2[nH]cc(C=C3Oc4cc(O)cc(O)c4C3=O)c2c1` [Example 182, 3-[(4,6-dihydroxy-3-oxo-1-benzofuran-2(3H)-ylidene)methyl]-1H-indole-5-carbonitrile], the 50% inhibitory concentration (IC50) was above 10 µM in assay [1], 12 µM in assay [2] and 1.11 µM in assay [3].
With `O=C1C(=Cc2c[nH]c3ccc(F)cc23)Oc2cc(O)cc(O)c21` [Example 175, 2-[(5-fluoro-1H-indol-3-yl)methylene]-4,6-dihydroxy-1-benzofuran-3(2H)-one], the IC50 is above 10 µM in assay [1], 9 µM in assay [2] and 1.04 µM in assay [3].
For the molecule `CCOC(=O)c1ccc(-c2cccc3c2c(/C=C2\Oc4cc(O)cc(O)c4C2=O)cn3C)cc1` [Example 382, Ethyl 4-{3-[(Z)-(4,6-Dihydroxy-3-oxo-1-benzofuran-2(3H)-ylidene)methyl]-1-methyl-1H-indol-4-yl}benzoate], the IC50 came out at 4.68 µM in assay [1], 0.535 µM in assay [2] and 2.92 µM in assay [3].
Consider `COc1cc(F)c2[nH]c(-c3c(C)nn(C)c3C)c(/C=C3\Oc4ccc(NC(=O)NCCN5CCCC5)cc4C3=O)c2c1` [Compound 727, 1-[(2Z)-2-{[7-fluoro-5-methoxy-2-(1,3,5-trimethyl-1H-pyrazol-4-yl)-1H-indol-3-yl]methylidene}-3-oxo-2,3-dihydro-1-benzofuran-5-yl]-3-(2-pyrrolidin-1-ylethyl)urea], for which the IC50 in assay [1] amounted to 0.00625 µM; in assay [2], 0.048 µM; in assay [3], 0.00145 µM.
Turning to `CNC(=O)Nc1ccc2c(c1)C(=O)/C(=C/c1c(-c3c(C)nn(C)c3C)n(CCN3CCNCC3)c3ccc(OC)cc13)O2` [Compound 656, 1-[(2Z)-2-{[5-methoxy-1-(2-piperazin-1-ylethyl)-2-(1,3,5-trimethyl-1H-pyrazol-4-yl)-1H-indol-3-yl]methylene}-3-oxo-2,3-dihydro-1-benzofuran-5-yl]-3-methylurea], the results for the IC50 in assay [1], in assay [2] and in assay [3] were 0.052 µM, 0.035 µM and 0.00095 µM, respectively.
As for `Cn1cc(/C=C2\Oc3cc(O)cc(O)c3C2=O)c2c(-c3ccc(N)nc3)cccc21` [Example 380, (2Z)-2-{[4-(6-Aminopyridin-3-yl)-1-methyl-1H-indol-3-yl]methylene}-4,6-dihydroxy-1-benzofuran-3(2H)-one], the 50% inhibitory concentration (IC50) in assay [1] is 3.26 µM; in assay [2], 0.089 µM; in assay [3], 0.432 µM.
The corresponding values for `CNC(=O)Nc1ccc2c(c1)C(=O)/C(=C/c1c(-c3c(C)nn(C)c3C)[nH]c3c(OC)c(F)c(OC)cc13)O2` [Compound 712, 1-[(2Z)-2-{[6-fluoro-5,7-dimethoxy-2-(1,3,5-trimethyl-1H-pyrazol-4-yl)-1H-indol-3-yl]methylidene}-3-oxo-2,3-dihydro-1-benzofuran-5-yl]-3-methylurea] are 0.246 µM, 0.24 µM and 0.023 µM.
On to `CCn1c(C2CCCCC2)c(/C=C2\Oc3ccc(NC(=O)Nc4ccc(C(=O)N5CCN(C)CC5)cc4)cc3C2=O)c2cc(OC)ccc21` [Compound 645, 1-{(2Z)-2-[(2-cyclohexyl-1-ethyl-5-methoxy-1H-indol-3-yl)methylene]-3-oxo-2,3-dihydro-1-benzofuran-5-yl}-3-{4-[(4-methylpiperazin-1-yl)carbonyl]phenyl}urea], for which the IC50 in assay [1] turned out to be 0.055 µM; in assay [2] it was 0.185 µM; in assay [3], 0.0018 µM.
On to `COc1ccc2c(c1)c(/C=C1\Oc3ccc(NC(=O)Nc4ccc(NCCN(C)C)cc4)cc3C1=O)c(C)n2CCN1CCN(C)CC1` [Compound 684, 1-(4-{[2-(dimethylamino)ethyl]amino}phenyl)-3-[(2Z)-2-({5-methoxy-2-methyl-1-[2-(4-methylpiperazin-1-yl)ethyl]-1H-indol-3-yl}methylidene)-3-oxo-2,3-dihydro-1-benzofuran-5-yl]urea], for which the IC50 stood at 1.72 µM in assay [1], 0.019 µM in assay [2] and 0.007 µM in assay [3].
`COc1ccc2c(c1)c(/C=C1\Oc3cc(O)ccc3C1=O)c(-c1c(C)noc1C)n2CCN1CCN(C)CC1` [Example 469, (2Z)-2-({2-(3,5-Dimethylisoxazol-4-yl)-5-methoxy-1-[2-(4-methylpiperazin-1-yl)ethyl]-1H-indol-3-yl}methylene)-6-hydroxy-1-benzofuran-3(2H)-one]: the half-inhibitory concentration (IC50) came out at 0.942 µM in assay [1], 0.165 µM in assay [2] and 0.0235 µM in assay [3].
For the molecule `CCn1c(C)c(/C=C2\Oc3ccc(NC(=O)Nc4ccc(OCCCN(C)C)cc4)cc3C2=O)c2cc(OC)ccc21` [Compound 654, 1-{4-[3-(dimethylamino)propoxy]phenyl}-3-{(2Z)-2-[(1-ethyl-5-methoxy-2-methyl-1H-indol-3-yl)methylene]-3-oxo-2,3-dihydro-1-benzofuran-5-yl}urea], the IC50 in assay [1] came to 0.0075 µM; in assay [2] it was 0.088 µM; in assay [3], 0.0015 µM.
`CNC(=O)Nc1ccc2c(c1)C(=O)/C(=C/c1c(-c3c(C)noc3C)n(CCN3CCN(C)CC3)c3ccc(OC)cc13)O2` [Compound 623, 1-[(2Z)-2-({2-(3,5-dimethylisoxazol-4-yl)-5-methoxy-1-[2-(4-methylpiperazin-1-yl)ethyl]-1H-indol-3-yl}methylidene)-3-oxo-2,3-dihydro-1-benzofuran-5-yl]-3-methylurea]: the IC50 came out at 0.296 µM in assay [1], 0.06 µM in assay [2] and 0.0085 µM in assay [3].
On to `COc1ccc2[nH]c(-c3c(C)nn(C)c3C)c(/C=C3\Oc4ccc(NC(=O)Nc5ccc(C(=O)N6CCC(N(C)C)C6)cc5)cc4C3=O)c2c1` (stereo not drawn) [Compound 697, 1-(4-{[3-(dimethylamino)pyrrolidin-1-yl]carbonyl}phenyl)-3-[(2Z)-2-{[5-methoxy-2-(1,3,5-trimethyl-1H-pyrazol-4-yl)-1H-indol-3-yl]methylidene}-3-oxo-2,3-dihydro-1-benzofuran-5-yl]urea], for which the IC50 in assay [1] came to 0.0014 µM; in assay [2], 0.001 µM; in assay [3], 0.00025 µM.
As to `COc1ccc2c(c1)c(/C=C1\Oc3cc(O)cc(O)c3C1=O)c(C1CCCCC1)n2CCN1CCN(C)CC1` [Example 447, (2Z)-2-({2-Cyclohexyl-5-methoxy-1-[2-(4-methylpiperazin-1-yl)ethyl]-1H-indol-3-yl}methylene)-4,6-dihydroxy-1-benzofuran-3(2H)-one], the figures for the IC50 in assay [1], in assay [2] and in assay [3] were 0.105 µM, 0.0013 µM and 0.0017 µM, respectively.
